The text below walks through data of patent US20240342318A1, “CONJUGATES COMPRISING COVALENT BINDERS FOR TARGETING INTRACELLULAR PROTEINS” (RayzeBio, Inc., priority 2021, published 2024).

pKd: −log10 of the molar value.

One test has as its target T1, EGFR (WT) (Homo sapiens, UniProt P00533).
T1 construct: The EGFR constructs span amino acids R669 to V1011 of the EGFR protein; T7 phage display fusion (kinase-tagged T7 phage) or DNA tag for qPCR; made in house; host or cells: E. coli (BL21-derived) infected with T7 phage for most assays; remaining kinases in HEK-293
The test can be described thus: In vitro kinase binding assay (phage/DNA-tagged kinase, affinity beads, qPCR), wild-type EGFR. How it is done: (§1) For most assays, kinase-tagged T7 phage strains were prepared in an E. coli host derived from the BL21 strain. For the EGFR assays, wild-type EGFR, or mutant EGFR (T790M, L858R) were utilized. The EGFR constructs span amino acids R669 to V1011 of the EGFR protein. E. coli were grown to log-phase and infected with T7 phage and incubated with shaking at 32° C. until lysis. The lysates were centrifuged and filtered to remove cell debris. The remaining kinases were produced in HEK-293 cells and subsequently tagged with DNA for qPCR detection. Streptavidin-coated magnetic beads were treated with biotinylated small molecule ligands for 30 minutes at room temperature to generate affinity resins for kinase assays. The liganded beads were blocked with excess biotin and washed with blocking buffer (SeaBlock (Pierce), 1% BSA, 0.05% Tween 20, 1 mM DTT) to remove unbound ligand and to reduce non-specific binding. Binding reactions were assembled by combining kinases, liganded affinity beads, and test compounds in 1× binding buffer (20% SeaBlock, 0.17×PBS, 0.05% Tween 20, 6 mM DTT). Test compounds were prepared as 111× stocks in 100% DMSO. Kds were determined using an 11-point 3-fold compound dilution series with three DMSO control points. All compounds for Kd measurements are distributed by acoustic transfer (non-contact dispensing) in 100% DMSO. The compounds were then diluted directly into the assays such that the final concentration of DMSO was 0.9%. All reactions performed in polypropylene 384-well plate. Each was a final volume of 0.02 ml. The assay plates were incubated at room temperature with shaking for 1 hour and the affinity beads were washed with wash buffer (lx PBS, 0.05% Tween 20). The beads were then re-suspended in elution buffer (lx PBS, 0.05% Tween 20, 0.5 μM nonbiotinylated affinity ligand) and incubated at room temperature with shaking for 30 minutes. The kinase concentration in the eluates was measured by qPCR.
(Real-time PCR tracks product formation cycle by cycle.)

The target of another test is T2, EGFR (L858R, T790M) (Homo sapiens, UniProt P00533, L858R/T790M).
T2 construct: The EGFR constructs span amino acids R669 to V1011 of the EGFR protein; T7 phage display fusion (kinase-tagged T7 phage) or DNA tag for qPCR; made in house; host or cells: E. coli (BL21-derived) infected with T7 phage for most assays; remaining kinases in HEK-293
The test can be described thus: In vitro kinase binding assay (phage/DNA-tagged kinase, affinity beads, qPCR), mutant EGFR. The method, then:
as §1

T2 sequence (P00533 669-1011 T790M/L858R): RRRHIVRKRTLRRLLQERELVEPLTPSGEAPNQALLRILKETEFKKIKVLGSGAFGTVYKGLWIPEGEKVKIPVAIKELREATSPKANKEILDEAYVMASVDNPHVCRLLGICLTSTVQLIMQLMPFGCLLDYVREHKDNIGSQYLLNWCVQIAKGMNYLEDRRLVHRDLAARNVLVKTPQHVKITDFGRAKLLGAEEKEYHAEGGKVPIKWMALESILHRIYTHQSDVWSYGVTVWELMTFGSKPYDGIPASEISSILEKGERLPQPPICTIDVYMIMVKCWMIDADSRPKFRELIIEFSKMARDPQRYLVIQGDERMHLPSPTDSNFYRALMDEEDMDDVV
T1 sequence (P00533 669-1011): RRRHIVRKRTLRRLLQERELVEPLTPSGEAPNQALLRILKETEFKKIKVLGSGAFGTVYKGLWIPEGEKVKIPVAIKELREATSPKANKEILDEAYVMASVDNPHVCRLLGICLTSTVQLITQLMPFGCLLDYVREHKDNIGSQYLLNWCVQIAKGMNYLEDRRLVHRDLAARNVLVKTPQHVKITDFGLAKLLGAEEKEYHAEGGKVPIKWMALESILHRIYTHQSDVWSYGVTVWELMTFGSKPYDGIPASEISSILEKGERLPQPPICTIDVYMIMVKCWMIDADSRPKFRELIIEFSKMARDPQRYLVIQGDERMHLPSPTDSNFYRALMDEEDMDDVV

As for `C=CC(=O)N1C[C@H](COc2nc(Nc3cnn(CCCCCNC(=O)CN4CCN5CCN6CCN(CC4)CC(=O)[O][Lu]([O]C(=O)C5)[O]C(=O)C6)c3)nc3[nH]cc(Cl)c23)[C@@H](OC)C1` [Compound 007-Lu, N-[5-[4-[[5-chloro-4-[[(3R,4R)-4-methoxy-1-prop-2-enoyl-pyrrolidin-3-yl]methoxy]-7H-pyrrolo [2,3-d]pyrimidin-2-yl]amino]pyrazol-1-yl]pentyl]-2-(3,16,19-trioxo-2,17,18-trioxa-5,8,11,14-tetraza-1λ3-lutetatricyclo[9.6.3.25,14]docosan-8-yl)acetamide], the pKd is 6.00 to 7.00 on EGFR (WT) and above 9.00 on EGFR (L858R, T790M). In addition, on EGFR (L858R, T790M) (ratio of Kd EGFR (WT) to Kd EGFR (L858R, T790M)), the “Binding Affinity ratio of WT/DM” value is recorded as “C (100 < C ≤ 1000)”.

As usually defined, the pKd is the Kd on a negative log10 scale, so that one unit is a factor of ten. Read a high pKd as a low Kd.
